According to BigSolDB 2.1:

O=C(O)c1ccc(Br)cn1
solubility (mole fraction)
Conditions | in 1,4-dioxane | in THF | in acetonitrile | in ethanol | in ethyl acetate | in isopropanol | in methanol | in methyl acetate | in n-butanol | in n-propanol
278.15 K | – | 0.0326 | 0.00178 | 0.00865 | 0.00491 | 0.0089 | 0.00787 | 0.00916 | 0.0119 | 0.0102
283.15 K | – | 0.0374 | 0.00219 | 0.0103 | 0.00583 | 0.0107 | 0.00924 | 0.0104 | 0.014 | 0.0126
288.15 K | 0.0326 | 0.0426 | 0.00266 | 0.0122 | 0.00674 | 0.0128 | 0.0107 | 0.0117 | 0.0163 | 0.0152
293.15 K | 0.0378 | 0.0478 | 0.0032 | 0.0144 | 0.00802 | 0.0152 | 0.0124 | 0.0131 | 0.0189 | 0.0182
298.15 K | 0.0435 | 0.0543 | 0.00381 | 0.0175 | 0.00937 | 0.018 | 0.0145 | 0.0147 | 0.0218 | 0.0216
303.15 K | 0.0502 | 0.0611 | 0.00449 | 0.0209 | 0.011 | 0.0213 | 0.017 | 0.0164 | 0.0249 | 0.0254
308.15 K | 0.0574 | 0.0663 | 0.00524 | 0.0241 | 0.0126 | 0.025 | 0.0196 | 0.0182 | 0.0283 | 0.0296
313.15 K | 0.0656 | 0.0742 | 0.00607 | 0.028 | 0.0144 | 0.0292 | 0.0229 | 0.0201 | 0.0319 | 0.0342
318.15 K | 0.0744 | 0.0803 | 0.00698 | 0.0323 | 0.0165 | 0.034 | 0.0271 | 0.0221 | 0.0358 | 0.0391
323.15 K | 0.0831 | 0.0886 | 0.00797 | 0.0379 | 0.0186 | 0.0394 | 0.0315 | 0.0244 | 0.0399 | 0.0445
